The record followed here is patent publication US9260382B2, “Methods of reducing virulence in bacteria” (priority 2010, dated 2016).

Where “and” joins values, the source holds several entries; their conditions need not be identical. Equal entries are not always repeated.

Test [1] relates to mrp promoter (reference gene). In words: GFP reporter plasmid pmrp, flow cytometry (reference gene). The settings on record: for mean fluorescence intensity of GFP, mrp promoter: 3937 (pmrp), MM + 100 μM. Format: cell-based, Dickeya dadantii 3937. On the procedure:
(§1) FACS analysis of promoter activity of dspE, hrpA, hrpL, hrpN, and hrpS was carried out as described (Peng et al., 2006). Briefly, the wild-type Ech3937 and the mutant strains carrying the promoter reporter plasmid were grown on LB broth at 28° C. overnight and transferred to appropriate media. For FACS analysis, samples were collected by centrifugation, washed with 1× phosphate buffer saline (PBS) at 13,000 rpm for 1 min, and re-suspended in 1×PBS to ca 10^6 CFU/ml prior to being run in a FACS Calibur flow cytometer (BD Biosciences, CA). Three replicates were performed for each treatment.
Since OCA and TCA induced the expression of hrpN, the effect of these two phenolic compounds on the expression of hrpA, hrpL, and hrpS was investigated further. […] GFP intensity was determined on gated populations of bacterial cells by flow cytometry and analyzed with the Cell Quest software (BD Biosciences, San Jose, Calif.). The lines labeled “1” stand for the GFP expression control base level of the Ech3937 containing pPROBE-AT vector; lines labeled “2” stand for the promoter activity of hrpS, hrpL, hrpA and hrpN in Ech3937 in MM; lines labeled “3” stand for the promoter activity of Ech3937 in MM supplemented with 0.1 mM OCA; lines labeled “4” stand for the promoter activity of hrpL mutant WPP96 in MM; lines labeled “5” stand for the promoter activity of hrpL mutant WPP96 in MM supplemented with 0.1 mM OCA. Values are representative of at least two experiments. […] Compared with MM alone, the average GFP fluorescence intensity of bacterial cells of Ech3937 (phrpA) was doubled when 0.1 mM of OCA and TCA were added to the medium (Table 4; FIG. 3). […] The mrp, whose protein product has an ATPase conserved domain (2e-06), was used as a reference gene in this study.

In test [2] the test system is pPROBE-AT vector without promoter insert. In words: pPROBE-AT vector control, flow cytometry. Format: cell-based, Dickeya dadantii 3937. The settings on record: for GFP Mean Fluorescence Intensity, vector control: Ech3937 (pPROBE-AT), MM + 0.1 mM compound; for mean fluorescence intensity of GFP, vector control: 3937 (pPROBE-AT), MM + 100 μM. On the procedure: as §1
(In flow cytometry, cells or beads pass a laser one at a time.)

In test [3] the test system is rsmB RNA. In words: qRT-PCR relative mRNA level of rsmB. Type of test: cell-based, Dickeya dadantii 3937. The following applies: for rsmB mRNA relative expression ratio (MM alone normalized to 1): Ech3937 in MM supplemented with compound. On the procedure:
(§2) Bacterial strains were grown in MM. Total RNA from the bacterial cells was isolated by using the TRI reagent method (Sigma, Mo.) and treated with Turbo DNA-free DNase kits (Ambion, Tex.) as described (Peng et al., 2006). An iScript cDNA Synthesis Kit (Bio-Rad, CA) was used to synthesize cDNA from 0.5 μg of treated total RNA. The Real Master Mix (Eppendorf, Westbury, N.Y.) was used for qRT-PCR reaction to quantify the cDNA level of target genes in different samples. The rplU was used as the endogenous control for data analysis. qRT-PCR data were analyzed using Relative Expression Software Tool as described (Pfaffl, M. W., Horgan, G. W., and Dempfle, L. (2002) Relative expression software tool (REST) for group-wise comparison and statistical analysis of relative expression results in real-time PCR. Nucleic Acids Res 30:e36.).
For orientation: Quantitative PCR measures a nucleic acid by following its amplification.

Test [4] concerns hrpA promoter (T3SS). The test can be described thus: hrpA promoter-probe phrpA in Erwinia amylovora 273, flow cytometry. Format: cell-based. The settings on record: Ea273 (phrpA), HIM + 100 μM compound. The procedure, abridged:
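Erwinia amylovora 273 carrying an hrpA promoter–GFP fusion (pPROBE-NT) was grown in hrp-inducing medium with 100 μM compound or DMSO. Promoter activity read as GFP intensity by flow cytometry at 6 h and 9 h.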

Test [5] concerns dspE mRNA. The test can be described thus: qRT-PCR relative mRNA level of dspE. Format: cell-based, Dickeya dadantii 3937. The following applies: 0.1 mM in MM. On the procedure:
as §2

The subject of test [6] is hrpA mRNA. In words: qRT-PCR relative mRNA level of hrpA. The settings on record: 0.1 mM in MM. Type of test: cell-based, Dickeya dadantii 3937. On the procedure: as §2
In test [7] the test system is exoS promoter (T3SS). In words: exoS promoter-gfp reporter pATexoS, flow cytometry. Format: cell-based, P. aeruginosa PA01. The settings on record: for Actual readings of flow cytometry (exoS expression): 6 h, LB with 200 mM NaCl, 10 mM NTA; for Fraction of untreated control (exoS expression): structure-activity table, concentration not given. On the procedure: To identify T3SS inhibitors of PA01, a promoter-probe vector pPROBE-AT containing the promoterless green fluorescent protein (gfp) gene was used to construct an exoS promoter-gfp plasmid reporter, pATexoS. PA01 containing pATexoS was cultured in T3SS-inducing medium containing dimethyl sulfoxide (DMSO; solvent of chemical compounds), or supplemented with 250 μM of each compound, and promoter activity was assessed at 6 h by measuring GFP intensity using flow cytometry. 101 compounds (58 synthesized and 43 commercially available) were screened. Compounds 027, 032, 101, and 149 repressed exoS expression at the final concentration of 250 μM by at least one standard deviation below the sample average (Z score≦−1) (FIG. 37 A-E). Z score (or standard score) indicates how many standard deviations an observation or datum is above or below the mean [z=(x−μ)/σ, where x is a raw score to be standardized, μ is the mean of the population, and σ is the standard deviation of the population].
To determine the effective concentration of compounds, the dose-dependent effect of potential inhibitors on exoS expression and bacterial growth were tested. P. aeruginosa cells carrying pATexoS were pre-cultured in LB supplemented with 200 mM NaCl and transferred to fresh LB with 200 mM NaCl, 10 mM NTA, and various concentrations of compounds (20, 50, 100, and 250 μM) or DMSO for 6 h. […] At 50 μM dosage, both 027 and 101 inhibited exoS expression at similar levels, and this inhibitory effect increased as compound concentration increased (FIG. 38A and Table 17). […] These inhibitions/inductions of exoS expression are caused by the shifting bacterial population between low-state expression cells and high-state expression cells (FIG. 40).

The test system of test [8] is gacA mRNA. The test can be described thus: qRT-PCR relative mRNA level of gacA. Type of test: cell-based, Dickeya dadantii 3937. The settings on record: 0.1 mM in MM. On the procedure:
as §2

Turning to `O=C(O)/C=C/c1ccccc1` [Compound 001, trans-cinnamic acid], in test [1] (Ech3937 (pmrp), MM + 0.1 mM compound, 12 h), the “GFP Mean Fluorescence Intensity, mrp promoter (reference gene)” value came out at 105 ± 0.3. Also, the “GFP Mean Fluorescence Intensity, vector control” value in test [2] (12 h) stood at 1.9 ± 0. In addition, the “rsmB mRNA relative expression ratio (MM alone normalized to 1)” value in test [3] was found to be 1.58. Further, the “Avg MFI ± SD, hrpA expression” value is recorded as 471.2 ± 12.6 in test [4] (6 h) and 432.6 ± 17.8 in test [4] (9 h).
In the case of `O=C(O)/C=C/c1ccc(O)cc1` [Compound 004, para-coumaric acid], the “GFP Mean Fluorescence Intensity, vector control” value in test [2] (12 h, listed as PCA) was 2.2 ± 0.2 and 2.3 ± 0.1; in test [2] (24 h) it was 4.9 ± 0.1. For the same molecule, in test [3] (0.1 mM in MM), the “rsmB mRNA compared with MM alone, in words” value is on record as “No significant difference”. Further, in test [5], the “dspE mRNA compared with MM alone, in words” value is reported as “significantly lower amount of mRNA”. In test [6], the “hrpA mRNA compared with MM alone, in words” value is recorded as “significantly lower amount of mRNA”. In addition, the “Actual readings of flow cytometry (exoS expression)” value in test [7] (20 uM) amounted to 119.08 ± 1.82; in test [7] (50 uM), 127.05 ± 4.43; in test [7] (100 uM) it was 118.16 ± 2.73; in test [7] (250 uM), 117.74 ± 5.09. The “effect on exoS promoter activity, in words” value in test [7] (screening for T3SS inhibitors) is “little or no effect on exoS promoter activity”. In test [7], the “Fraction of untreated control (exoS expression)” value amounted to 0.94 ± 0.05. The “Avg MFI ± SD, hrpA expression” value in test [4] (6 h) turned out to be 920.6 ± 29.1; in test [4] (9 h) it was 993.8 ± 43.3.
In the case of `O=C(O)/C=C/c1ccccc1O` [Compound 006, Ortho-coumaric acid], the entries for the “GFP Mean Fluorescence Intensity, vector control” value in test [2] (6 h), in test [2] (12 h) and in test [2] (24 h) were 2.0 ± 0, 2.0 ± 0 and 1.9 ± 0, respectively. The “rsmB mRNA relative expression ratio (MM alone normalized to 1)” value in test [3] was 1.4. For the same molecule, in test [5], the “dspE mRNA compared with MM alone, in words” value was “significantly higher amount”. Besides, the “hrpA mRNA compared with MM alone, in words” value in test [6] is recorded as “significantly higher amount”. The “gacA mRNA compared with MM alone, in words” value in test [8] is given as “No significant difference”. For the same molecule, the figures for the “Avg MFI ± SD, hrpA expression” value in test [4] (6 h) and in test [4] (9 h) were 443 ± 16.9 and 437.8 ± 21.1, respectively.
On to `O=C(/C=C/c1ccc(O)cc1)NO` [Compound 103, trans-4-Hydroxycinnamohydroxamic acid], for which the “mean fluorescence intensity of GFP, mrp promoter” value in test [1] (12 h) was 81.2 ± 0.7; in test [1] (24 h), 67.7 ± 2.5. Besides, the “mean fluorescence intensity of GFP, vector control” value in test [2] (12 h) amounted to 3.0 ± 0.6; in test [2] (24 h), 4.3 ± 0.6. Moreover, the “Actual readings of flow cytometry (exoS expression)” value in test [7] (20 uM) is listed as 179.07 ± 2.98; in test [7] (50 uM), 237.31 ± 4.94; in test [7] (100 uM), 279.16 ± 2.72; in test [7] (250 uM) it was 328.30 ± 3.24. The “Fraction of untreated control (exoS expression)” value in test [7] turned out to be 2.04 ± 0.13. The figures for the “Avg MFI ± SD, hrpA expression” value in test [4] (6 h) and in test [4] (9 h) were 206.9 ± 3.9 and 168.2 ± 24.9, respectively.
